Entries after “also recorded” stand apart in the source; their conditions may differ.
Columns and labels:
[1] = tested on: small mesenteric arteries; assay: Acetylcholine-induced relaxation of small mesenteric arteries from healthy and diabetic BKS mice (ex vivo); design: species or system male BKS(D)-Leprdb/JOrlRj mice
Description: In these experiments, healthy control mice of different ages and diabetic adult mice were used and the relaxation measurements were performed as described in Example 1.
Healthy male BKS(D)-Leprdb/JOrlRj heterozygous mice between 14-16 and 24-25 weeks of age, and diabetic homozygous mice between 16-17 weeks of age were tested respectively. The results of the isometric tension studies are shown in FIGS. 2, A), B) and C) respectively.

[2] = tested on: small mesenteric arteries; assay: Acetylcholine-induced endothelium-dependent relaxation of phenylephrine pre-contracted small mesenteric arteries, isometric myograph (ex vivo); design: species or system Male Wistar rats
Description: Small mesenteric arteries were mounted in microvascular myographs (Danish Myotechnology, Aarhus, Denmark) using two 40 μm wires and stretched to their optimal diameter for isometric tension recordings, which corresponded to 0.9 times the estimated internal diameter at 100 mmHg of transmural pressure. PSS solution in the myograph bath was heated to 37° C. and continuously bubbled with 5% CO2 in air to maintain pH (7.4). The vessel viability was tested at the beginning of each experiment by measuring the vasoconstrictor responses to a solution with a high K^+ concentration (KPSS), equivalent to PSS except that NaCl was exchanged for KCl on an equimolar basis, giving a final concentration of 123.7 mmol/L K^+ and the presence of endothelium was confirmed by addition of acetylcholine (ACh) (10^−5) after pre-constriction with noradrenaline (5·10^−6 mol/L), arteries with less than 75% of relaxation were discarded.
Mesenteric arteries from rats of different age were incubated with (10^−6 mol/L) LDN-27219 or vehicle for 25 minutes and pre-contracted with phenylephrine (Phe) (10^−5 mol/L). Then cumulative addition of acetylcholine (ACh) caused the relaxation of the mesenteric arteries and the concentration-response curves were constructed.
Rats of 5-7 weeks age, about 12 weeks age, and more than 30 weeks of age were tested respectively. The results of the isometric tension studies are shown in FIGS. 1, A), B) and C) respectively, each representing a different their age group.
The small mesenteric arteries were prepared in the same way is described in example 1.

[3] = biological target: T1, purified human TG2 (Homo sapiens, UniProt P21980); assay: Conformational shift assay by native polyacrylamide gel electrophoresis (native-PAGE); format: biochemical; settings: TG2 2.5 uM; 1 mM LDN-27219, 1 mM GTPNa2, or 0.2 mM Z-DON with CaCl2
T1 construct: purchased Zedira (Darmstadt, Germany); host or cells: insect cells
T1 sequence (P21980 1-687): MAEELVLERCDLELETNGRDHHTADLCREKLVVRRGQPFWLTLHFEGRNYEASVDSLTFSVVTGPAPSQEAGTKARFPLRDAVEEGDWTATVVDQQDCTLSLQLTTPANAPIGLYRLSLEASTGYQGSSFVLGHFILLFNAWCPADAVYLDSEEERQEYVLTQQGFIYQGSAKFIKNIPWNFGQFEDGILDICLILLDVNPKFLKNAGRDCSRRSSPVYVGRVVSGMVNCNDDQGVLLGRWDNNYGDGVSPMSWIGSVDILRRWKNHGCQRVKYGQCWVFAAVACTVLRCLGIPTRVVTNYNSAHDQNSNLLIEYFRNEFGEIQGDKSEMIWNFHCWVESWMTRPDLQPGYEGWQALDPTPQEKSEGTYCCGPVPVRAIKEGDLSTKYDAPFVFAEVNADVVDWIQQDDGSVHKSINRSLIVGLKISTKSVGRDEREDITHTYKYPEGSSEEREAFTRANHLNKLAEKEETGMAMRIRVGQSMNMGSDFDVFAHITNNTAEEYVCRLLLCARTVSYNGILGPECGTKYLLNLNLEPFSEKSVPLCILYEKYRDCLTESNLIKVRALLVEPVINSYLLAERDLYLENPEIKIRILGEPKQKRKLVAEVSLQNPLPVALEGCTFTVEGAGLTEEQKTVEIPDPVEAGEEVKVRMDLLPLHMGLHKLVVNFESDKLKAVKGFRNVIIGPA
Description: For the conformational shift assay using native polyacrylamide gel electrophoresis (native-PAGE) purified and functional human TG2 protein produced in insect cells was obtained from Zedira (Darmstadt, Germany).
Native gel electrophoresis experiments were performed using a method similar to those previously described (Pinkas D M, et al., PLoS Biol, 2007, 5(12), 2788-2796.) (Iversen R, et al., Proc Natl. Acad. Sci., 2014, 111(43), 17146-17151). Briefly, TG2 (2.5 uM) was incubated for 30 min at room temperature in preincubation buffer (75 mM imidazole, 0.5 mM EDTA, 5 mM DTT [pH 7.2], 10% DMSO) with or without 1 mM GTPNa2 or 1 mM LDN-27219 before adding Native Sample Buffer for Protein Gels (Bio-Rad) or in preincubation buffer with 0.2 mM Z-DON 30 min prior addition of 5 mM of CaCl2 for 20 min. Native buffer was added (dilution 1:2), and 1.5 ug of protein was loaded onto a 4-20% Criterion™ TGX Stain-Free™ gel (Bio-Rad) using Tris-glycine as the running buffer. For 75 min, 125 V was applied at 4° C. The bands were visualized using stain-free technology by exposing the gels to UV light and capturing the image using a PXi 4 Touch image analysis system (Syngene). Band intensity analysis was carried out using GeneTools 4 software (Syngene).

NNC(=O)CSc1nc2scc(-c3ccccc3)c2c(=O)n1-c1ccccc1 [LDN-27219]
endothelium-dependent relaxation induced by acetylcholine, compared to vehicle ([1]; LDN-27219 3·10^−6 mol/L, healthy and diabetic mice): more potent endothelium-dependent relaxation
dependence of the effect on age and diabetes ([1]; healthy mice 14-16 and 24-25 weeks, diabetic mice 16-17 weeks): more pronounced in older mice, and particularly pronounced in diabetic mice
LDN-27219 potentiation of ACh-induced vasodilation in presence of irreversible TG2 inhibitor ([2]; LDN-27219 10^−6 mol/L with VA-5 10^−5 mol/L, ≈12 week rats): reduced or completely inhibited
endothelium-dependent relaxation induced by acetylcholine, compared to vehicle ([2]; LDN-27219 10^−6 mol/L, 25 min incubation, Phe 10^−5 mol/L pre-contraction, rats of different age): more potent endothelium-dependent relaxation; also recorded: increased the response to ACh
age dependence of the effect on acetylcholine-induced relaxation ([2]; LDN-27219 10^−6 mol/L, rats 6-7, ≈12 and >30 weeks old): more pronounced in old rats, than in young rats
relative abundance of closed / open conformation of TG2 [3]: increase the relative abundance of the closed conformation
